# Results from patent publication EP0107214A2, “Pharmaceutical compositions containing benzoyl-phenyl ureas with anti-tumour activity” (DUPHAR INTERNATIONAL RESEARCH B.V, priority 1982, dated 1984).
# Several values for one entry are separate records, joined by “and”; a condition that tells them apart may be missing. Equal entries are not always repeated. Where two headings read alike, the source gives them in different places.
# Tests used:
# Skin carcinoma (Ca 1025) = Skin carcinoma (Ca 1025) in AKR mice, tumor growth after intraperitoneal injection; format: in vivo; settings: single injection 20 mg
# Experimental: (§1) Ridgeway Osteogenic Sarcoma (ROS) in AKR mice. The advantage of the use of such a localized, non-metastatic tumor for studies on drug effects is that pertuba- tions of tumor growth and longevity of the mice are attributable to a direct effect on the primary tumor. • III. Skin carcinoma (Ca 1025) in AKR mice. This tumor represents a second histologic cell type arising from skin and is less malignant than malignant melanoma.
# (§2) The compounds were tested by intraperitoneal injections of suspensions of the compounds in an aqueous solution of polyvinyl pyrrolidone.
# The compound PH 60-44 was also tested in this model.
# melanoma B-16 cells = assay: Malignant melanoma B-16 cells in vitro, cell count by Coulter Counter; format: cell-based; settings: Mus musculus; for activity at 50 µg/mL: B16, 48 h, 50 ug/ml
# Experimental: Cells of malignant melanomas B-16 grow as a monolayer. The doubling time of this type of cells in a cell--culture is 12 to 16 hours. For this experiment 6 multi-well tissue culture plates having a flat bottom with a surface area of 6 cm^2 appeared to be suitable and have been used.
# On day 0 a quantity of melanoma B-16 cells were brought on the cell-culture plates.
# The test compounds were sonicated and then incubated without cells for 3 hours at 37°C.
# Then the compound to be tested was administered to the plates with melanoma B-16 cells in the desired quantity (each test was done in triplicate). Thereafter the plates were incubated in a C02-incubator for 20 hours at 37°C. Then the incubation was stopped by removing the culture medium containing the test compound, the cells were washed twice, and fresh culture medium was added.
# 48 Hours after starting the incubation step the number of cells on each plate was measured by means of a microcell Coulter Counter. The results so obtained have been expressed as "percentage of controll cell growth".
# In the above experiment the compounds to be tested have been used in the form of a suspension. Since it is not quite clear how much of the active compounds is dissolved, the above results cannot be compared very well.
# Therefore a number of compounds has been dissolved in ethanol.
# [1] = tested on: Ridgeway Osteogenic Sarcoma (ROS); assay: Ridgeway Osteogenic Sarcoma (ROS) in AKR mice, tumor growth after intraperitoneal injection; format: in vivo
# Experimental: as §1, §2
# Doses of diflubenzuron of 20 mg on day 0 (Table VI), 20 mg each on days 0 and 3; and 20 mg each on days 0, 1, 2, 5 and 6 (Table VII) were used in this test model. […]
# B-16 malignant melanoma = B-16 malignant melanoma in C57BL/6 mice, tumor growth after intraperitoneal injection; format: in vivo
# Experimental: as §2
# Mice with malignant melanomas were injected with 20 mg or 40 mg diflubenzuron in suspension or with the suspension medium (blank).
# Finally compound 2) was given in doses of 20 mg each on days 0, 1 and 2.
# Animals with growing tumors were treated with 100 mg of diflubenzuron alone (suspended in an aqueous solution of polyvinylpyrrolidone) or in combination with a metabolic inhibitor or a metabolic inducer according to the schedule given in Table XI.
# [2] = 5 x 20 mg, days 0, 1, 2, 5 and 6
# [3] = 100 mg (20 mg days 0-4) after 2.4 mg cobaltous chloride (1.2 mg on days -2 and -1)
# [4] = 100 mg (20 mg days 0-4) after 4 mg phenobarbital (1 mg on days -4 to -1)
# [5] = 100 mg (20 mg days 0-4) after 6.4 mg 3-methylcholanthrene (1.6 mg on days -4 to -1)
# [6] = 100 mg total, 20 mg each on day 0, 1, 2, 3 and 4
# [7] = 2 x 20 mg, on day 0 and day 2 or 4
# [8] = single injection 40 mg, i.p. suspension
structure (smiles),measurement,setting,value
"O=C(NC(=O)c1c(F)cccc1F)Nc1ccc(Cl)cc1 [Compound 1, 1-(2,6-difluorobenzoyl)-3-(4-chlorophenyl)urea]",% change in tumor mass day 1,Skin carcinoma (Ca 1025),-3.8 (35) %
same,% change in tumor mass day 2,Skin carcinoma (Ca 1025),19.9 (7) %
same,activity at 50 µg/mL,"melanoma B-16 cells; dissolved in ethanol, read-out: Percentage of controll cell growth (solution)",48%
same,activity at 50 µg/mL,"melanoma B-16 cells; suspension, read-out: Percentage of controll cell growth (suspension)",79%
same,activity at 500 µg/mL,"melanoma B-16 cells; B16, suspension, 20 hours incubation, cells counted at 48 hours, read-out: Percentage of controll cell growth when tested in an amount of 5 x 10^2 µg/ml",78%
same,activity at 5000 µg/mL,"melanoma B-16 cells; B16, suspension, 20 hours incubation, cells counted at 48 hours, read-out: Percentage of controll cell growth when tested in an amount of 5 x 10^3 µg/ml",41%
same,% change in tumor mass day 1,[1]; 20 mg on day 0,14.4 (29) %
same,% change in tumor mass day 2,[1]; 20 mg on day 0,48.5 (19) %
same,% change in tumor mass day 1,"[1]; 2 x 20 mg, days 0 and 3",32.0 (10) %
same,% change in tumor mass day 3,"[1]; 2 x 20 mg, days 0 and 3",104 (10) %
same,% change in tumor mass day 4,"[1]; 2 x 20 mg, days 0 and 3",213 (10) %
same,% change in tumor mass day 5,"[1]; 2 x 20 mg, days 0 and 3",298 (10) %
same,% change in tumor mass day 7,"[1]; 2 x 20 mg, days 0 and 3",511 (10) %
same,% change in tumor mass day 14,"[1]; 2 x 20 mg, days 0 and 3",1682 (10) %
same,% change in tumor mass day 21,"[1]; 2 x 20 mg, days 0 and 3",4051 (10) %
same,% change in tumor mass day 1,[1]; [2],12.2 (10) %
same,% change in tumor mass day 2,[1]; [2],43.3 (10) %
same,% change in tumor mass day 5,[1]; [2],285 (10) %
same,% change in tumor mass day 7,[1]; [2],423 (10) %
same,% change in tumor mass day 14,[1]; [2],2495 (10) %
same,% change in tumor mass day 21,[1]; [2],8880 (8) %
same,% change in tumor mass day 1,B-16 malignant melanoma; [3],14.4 (16) %
same,% change in tumor mass day 2,B-16 malignant melanoma; [3],20.9 (12) %
same,% change in tumor mass day 3,B-16 malignant melanoma; [3],36.4 (12) %
same,% change in tumor mass day 4,B-16 malignant melanoma; [3],39.3 (12) %
same,% change in tumor mass day 5,B-16 malignant melanoma; [3],59.7 (12) %
same,% change in tumor mass day 10,B-16 malignant melanoma; [3],306 (12) %
same,% change in tumor mass day 14,B-16 malignant melanoma; [3],782 (9) %
same,% change in tumor mass day 1,B-16 malignant melanoma; [4],-19.4 (23) %
same,% change in tumor mass day 2,B-16 malignant melanoma; [4],-10.4 (23) %
same,% change in tumor mass day 3,B-16 malignant melanoma; [4],0.8 (23) %
same,% change in tumor mass day 4,B-16 malignant melanoma; [4],21.7 (23) %
same,% change in tumor mass day 5,B-16 malignant melanoma; [4],72.1 (23) %
same,% change in tumor mass day 10,B-16 malignant melanoma; [4],293 (23) %
same,% change in tumor mass day 14,B-16 malignant melanoma; [4],572 (10) %
same,% change in tumor mass day 1,B-16 malignant melanoma; [5],-29.2 (34) %
same,% change in tumor mass day 2,B-16 malignant melanoma; [5],-23.5 (34) %
same,% change in tumor mass day 3,B-16 malignant melanoma; [5],-20.6 (32) %
same,% change in tumor mass day 4,B-16 malignant melanoma; [5],-15.1 (29) %
same,% change in tumor mass day 5,B-16 malignant melanoma; [5],5.7 (21) %
same,% change in tumor mass day 10,B-16 malignant melanoma; [6],266 (17) %
same,% change in tumor mass day 14,B-16 malignant melanoma; [6],378 (12) %
same,% change in tumor mass on day 11,B-16 malignant melanoma; [6],891 (12) %
same,% change in tumor mass day 2,"B-16 malignant melanoma; 100 mg total, 20 mg each on day 0, 1, 2, 3 and 4, listed as diflubenzuron",-8.6 (17) % and -12.5 (22) % and -7.2 (12) %
same,% change in tumor mass day 1,B-16 malignant melanoma; [7],-11.7 (26) %
same,% change in tumor mass day 2,B-16 malignant melanoma; [7],18.6 (26) %
same,% change in tumor mass day 3,B-16 malignant melanoma; [7],92.6 (16) %
same,% change in tumor mass day 4,B-16 malignant melanoma; [7],143 (26) %
same,% change in tumor mass day 5,B-16 malignant melanoma; [7],178 (10) %
same,% change in tumor mass day 6,B-16 malignant melanoma; [7],264 (26) %
same,% change in tumor mass day 15,B-16 malignant melanoma; [7],1187 (16) %
same,reduction in tumor size within 24 hours of treatment,"B-16 malignant melanoma; initial injection of 20 mg, two experiments, listed as diflubenzuron",11.7% and 13.4%
same,initial decrease (tumor size),B-16 malignant melanoma; injection of 40 mg,22%
same,% change in tumor mass day 2,"B-16 malignant melanoma; single injection 20 mg, i.p. suspension",18.6(26) %
same,% change in tumor mass day 1,"B-16 malignant melanoma; single injection 20 mg, i.p. suspension, listed as diflubenzuron",-11.7(26) % and -13.4(22) %
same,initial doubling time (in days) 0-2 days,"B-16 malignant melanoma; single injection 20 mg, calculated from change within 48 hours after treatment, listed as diflubenzuron",10.4 days and 10.4(26) days
same,% change in tumor mass day 1,B-16 malignant melanoma; [8],-22.4(8) %
same,% change in tumor mass day 2,B-16 malignant melanoma; [8],-14.7(8) %
same,initial doubling time (in days) 0-2 days,"B-16 malignant melanoma; single injection 40 mg, negative = time for decrease to one-half size",-6.7(8) days
